Measurements from patent US20240415819A1, “MACROCYCLIC COMPOUNDS AS PROTEASOME SUBUNIT BETA TYPE-5 INHIBITORS” (Lead Discovery Center GmbH, priority 2021, published 2024).

Key:
[1] = biological target: T1, β5 subunit of the human constitutive proteasome (CPS) (Homo sapiens, UniProt P28074); experiment: β5 inhibition assay, human constitutive proteasome (Suc-LLVY-AMC); type: biochemical; settings: IC50 class, Suc-LLVY-AMC substrate
T1 construct: purchased Boston Biochem E-360
Method: The enzymatic activity of the β5 subunit of the human constitutive proteasome (CPS) is analyzed. In another assay, which differs from the assay of the human constitutive proteasome only in using the human immunoproteasome (IPS) the enzymatic activity of the β5 subunit of the human immunoproteasome (IPS) is analyzed. […] Inhibition is indicated as IC50 [nM] (“-”=not measured).

[2] = biological target: T2, β5 subunit of the human immunoproteasome (IPS) (Homo sapiens, UniProt P28062); experiment: β5 inhibition assay, human immunoproteasome (Suc-LLVY-AMC); type: biochemical; settings: IC50 class, Suc-LLVY-AMC substrate
T2 construct: purchased Boston Biochem E-370
Method in brief: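 Human immunoproteasome (1 nM final) was preincubated 10 min at RT with compound in 100 mM HEPES pH 7.5, 50 mM NaCl, 0.02% SDS, 1 mM DTT. Suc-LLVY-AMC (22.6 μM final) was then added for 4 h at RT in the dark. After stopping with 1 μM bortezomib, AMC fluorescence was read (ex 355/em 460 nm).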

[3] = system: A549 (human lung carcinoma cell line); experiment: Glo assay of A549 cells (Table 3; ProteasomeGlo plating scheme); type: cell-based; settings: Homo sapiens; A549 cells; read-out: PGLo A549
Method in brief: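 After acoustic compound transfer, plates incubate 105 min (37° C., 5% CO2). Proteasome-Glo reagent containing Suc-LLVY-Glo substrate is added, plates are shaken, then luminescence is measured after 10-15 min to derive IC50 [nM]. Staurosporine and DMSO serve as controls.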

[4] = system: Hs 746T (human gastric carcinoma cell line); experiment: 48 hr CTG viability assay, Hs 746T; type: cell-based; settings: Hs746T, 48 hr CTG, read-out: Hs 746T IC50
Method in brief: (§1)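 Growth inhibition by compound over 48 h; IC50 (nM) derived from duplicate CellTiter-Glo luminescence readings across 0.0015–10 uM.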

[5] = system: MM1 S (B lymphoblast cell line); experiment: 48 hr CTG viability assay, MM1S; type: cell-based; settings: Homo sapiens, 48 hr CTG, read-out: MM1S IC50
Method in brief: as §1

[6] = system: RPMI 8226 (B lymphocyte cell line, multiple myeloma); experiment: 48 hr CTG viability assay, RPMI 8226; type: cell-based; settings: Homo sapiens, RPMI-8226; 48 hr CTG; read-out: RPMI-8226 IC50
Method in brief: as §1

Measured: IC50

Cc1ccc2cc1CNC(=O)[C@H](CCc1ccccc1)NC(=O)[C@@H](NC(=O)CCOCCCc1ccccc1)CC(=O)N1CCCC(CCO2)C1 (stereo partly drawn) [Compound 612, N-((9S,12S)-5^4-methyl-8,11,14-trioxo-9-phenethyl-4-oxa-7,10-diaza-1(3,1)-piperidina-5(1,3)-benzenacyclotetradecaphane-12-yl)-3-(3-phenylpropoxy)propanamide]
< 100 nM: all assays above

Cc1ccc2cc1CNC(=O)[C@H](CCc1ccccc1)NC(=O)[C@@H](NC(=O)CCN1CCC3(CCCC3)CC1)CC(=O)N1CCCC(CCO2)C1 (stereo partly drawn) [Compound 613, N-((9S,12S)-5^4-methyl-8,11,14-trioxo-9-phenethyl-4-oxa-7,10-diaza-1(3,1)-piperidina-5(1,3)-benzenacyclotetradecaphane-12-yl)-3-(8-azaspiro[4.5]decan-8-yl)propanamide]
< 100 nM: all assays above

Cc1ccc2cc1CNC(=O)[C@H](CCc1ccccc1)NC(=O)[C@@H](NC(=O)CCOCC1CC3CCC1C3)CC(=O)N1CCCC(CCO2)C1 (stereo partly drawn) [Compound 614, 3-(bicyclo[2.2.1]heptan-2-ylmethoxy)-N-((9S,12S)-5^4-methyl-8,11,14-trioxo-9-phenethyl-4-oxa-7,10-diaza-1(3,1)-piperidina-5(1,3)-benzenacyclotetradecaphane-12-yl)propanamide]
< 100 nM: all assays above

Cc1ccc2cc1CNC(=O)[C@H](CCc1ccccc1)NC(=O)[C@@H](NC(=O)CCOCC1CC3(CCC3)C1)CC(=O)N1CCCC(CCO2)C1 (stereo partly drawn) [Compound 615, N-((9S,12S)-5^4-methyl-8,11,14-trioxo-9-phenethyl-4-oxa-7,10-diaza-1(3,1)-piperidina-5(1,3)-benzenacyclotetradecaphane-12-yl)-3-(spiro[3.3]heptan-2-ylmethoxy)propanamide]
< 100 nM: all assays above

Cc1ccc2cc1CNC(=O)[C@H](CCc1ccccc1)NC(=O)[C@@H](NC(=O)CCNC(=O)C1CC3(CCC3)C1)CC(=O)N1CCCC(CCO2)C1 (stereo partly drawn) [Compound 616, N-(3-(((9S,12S)-5^4-methyl-8,11,14-trioxo-9-phenethyl-4-oxa-7,10-diaza-1(3,1)-piperidina-5(1,3)-benzenacyclotetradecaphane-12-yl)amino)-3-oxopropyl)spiro[3.3]heptane-2-carboxamide]
< 100 nM: all assays above

Cc1ccc2cc1CNC(=O)[C@H](CCc1ccccc1)NC(=O)[C@@H](NC(=O)CCNC(=O)C1CC3CCC1C3)CC(=O)N1CCCC(CCO2)C1 (stereo partly drawn) [Compound 617, N-(3-(((9S,12S)-5^4-methyl-8,11,14-trioxo-9-phenethyl-4-oxa-7,10-diaza-1(3,1)-piperidina-5(1,3)-benzenacyclotetradecaphane-12-yl)amino)-3-oxopropyl)bicyclo[2.2.1]heptane-2-carboxamide]
< 100 nM: all assays above

Cc1ccc2cc1CNC(=O)[C@H](CCc1ccccc1)NC(=O)[C@@H](NC(=O)CCOCCc1ccccc1)CC(=O)N1CCCC(CCO2)C1 (stereo partly drawn) [Compound 618, N-((9S,12S)-5^4-methyl-8,11,14-trioxo-9-phenethyl-4-oxa-7,10-diaza-1(3,1)-piperidina-5(1,3)-benzenacyclotetradecaphane-12-yl)-3-phenethoxypropanamide]
< 100 nM: all assays above

COc1ccccc1COCCC(=O)N[C@H]1CC(=O)N2CCCC(CCOc3ccc(C)c(c3)CNC(=O)[C@H](CCc3ccccc3)NC1=O)C2 (stereo partly drawn) [Compound 619, 3-((2-methoxybenzyl)oxy)-N-((9S,12S)-5^4-methyl-8,11,14-trioxo-9-phenethyl-4-oxa-7,10-diaza-1(3,1)-piperidina-5(1,3)-benzenacyclotetradecaphane-12-yl)propanamide]
< 100 nM: all assays above

Cc1ccc2cc1CNC(=O)[C@H](CCc1ccccc1)NC(=O)[C@@H](NC(=O)CCN1CCC3(CCOC3)CC1)CC(=O)N1CCCC(CCO2)C1 (stereo partly drawn) [Compound 621, N-((9S,12S)-5^4-methyl-8,11,14-trioxo-9-phenethyl-4-oxa-7,10-diaza-1(3,1)-piperidina-5(1,3)-benzenacyclotetradecaphane-12-yl)-3-(2-oxa-8-azaspiro[4.5]decan-8-yl)propanamide]
< 100 nM: all assays above

COc1ccc(OCCC(=O)N[C@H]2CC(=O)N3CCCC(CCOc4ccc(C)c(c4)CNC(=O)[C@H](CCc4ccccc4)NC2=O)C3)cc1 (stereo partly drawn) [Compound 622, 3-(4-methoxyphenoxy)-N-((9S,12S)-5^4-methyl-8,11,14-trioxo-9-phenethyl-4-oxa-7,10-diaza-1(3,1)-piperidina-5(1,3)-benzenacyclotetradecaphane-12-yl)propanamide]
< 100 nM: all assays above

Cc1ccc2cc1CNC(=O)[C@H](CCc1ccccc1)NC(=O)[C@@H](NC(=O)CCOCCC1CCCC1)CC(=O)N1CCCC(CCO2)C1 (stereo partly drawn) [Compound 623, 3-(2-cyclopentylethoxy)-N-((9S,12S)-5^4-methyl-8,11,14-trioxo-9-phenethyl-4-oxa-7,10-diaza-1(3,1)-piperidina-5(1,3)-benzenacyclotetradecaphane-12-yl)propanamide]
< 100 nM: all assays above

Cc1ccc2cc1CNC(=O)[C@H](CCc1ccccc1)NC(=O)[C@@H](NC(=O)Cc1ccccc1)CCOC(=O)N1CCCC(CCO2)C1 (stereo partly drawn) [Compound 624, N-((9S,12S)-5^4-methyl-8,11,16-trioxo-9-phenethyl-4,15-dioxa-7,10-diaza-1(3,1)-piperidina-5(1,3)-benzenacyclohexadecaphane-12-yl)-2-phenylacetamide]
< 100 nM: all assays above

Cc1ccc2cc1CNC(=O)[C@H](CCc1ccccc1)NC(=O)[C@@H](NC(=O)CCOCC1CCCC1)CC(=O)N1CCCC(CCO2)C1 (stereo partly drawn) [Compound 625, 3-(cyclopentylmethoxy)-N-((9S,12S)-5^4-methyl-8,11,14-trioxo-9-phenethyl-4-oxa-7,10-diaza-1(3,1)-piperidina-5(1,3)-benzenacyclotetradecaphane-12-yl)propanamide]
< 100 nM: all assays above

Cc1ccc2cc1CNC(=O)[C@H](CCc1ccccc1)NC(=O)[C@@H](NC(=O)CCOCCCC1CC1)CC(=O)N1CCCC(CCO2)C1 (stereo partly drawn) [Compound 626, 3-(3-cyclopropylpropoxy)-N-((9S,12S)-5^4-methyl-8,11,14-trioxo-9-phenethyl-4-oxa-7,10-diaza-1(3,1)-piperidina-5(1,3)-benzenacyclotetradecaphane-12-yl)propanamide]
< 100 nM: all assays above

Cc1ccc2cc1CNC(=O)[C@H](CCc1ccccc1)NC(=O)[C@@H](NC(=O)CCOCCC1CCC1)CC(=O)N1CCCC(CCO2)C1 (stereo partly drawn) [Compound 627, 3-(2-cyclobutylethoxy)-N-((9S,12S)-5^4-methyl-8,11,14-trioxo-9-phenethyl-4-oxa-7,10-diaza-1(3,1)-piperidina-5(1,3)-benzenacyclotetradecaphane-12-yl)propanamide]
< 100 nM: all assays above
